Measured values reported in US20250101436A1, “APTAMERS AND SMALL MOLECULE LIGANDS” (MeiraGTx UK II Limited, priority 2021, published 2025).
One block for each compound: values may come before it.

Key:
12C6-1 riboswitch = assay: Firefly luciferase assay, Luci-12C6-1 riboswitch construct in transfected HEK 293 cells; assay type: cell-based, human; details: for activation of 12C6-1 and derivative riboswitches in regulating Luciferase expression (FIG. 4d): HEK 293 cells; for luciferase expression response: HEK 293 cells transfected with Luci-12C6-1
From the text: Riboswitch construct: Aptamers were synthesized by Integrated DNA Technologies, Inc. The synthesized aptamer sequence, here referred to as aptamer sequence 12C6-1, contains a putative TPP aptamer sequence (AP008955.1/944373-944459; CP030117.1/954080-954166; CP023474.1/977011-977097) with C at 5′ end and a complementary G at 3′ end flanking the putative TPP aptamer sequence: […] […] (SEQ ID NO: 1). Golden Gate cloning strategy (New England Biolabs, NEB) was used to clone the synthesized aptamer sequences into an intron-exon-intron cassette to replace the guanine aptamer in the G17 riboswitch cassette (see SEQ ID NO: 15 recited in WO 2016/126747, which is incorporated herein in its entirety) to generate riboswitch construct Luci-12C6-1.

N5-12G6 riboswitch = assay: Firefly luciferase assay, N5-12G6 riboswitch in HEK293 cells; details: for fold induction at 2 µM: Homo sapiens, HEK293, read-out: Fold induction 2 μM (HEK), 12G6 riboswitch, luciferase, HEK293, 2 μM
Protocol: (§4) Transfection: 3.5×10^4 human embryonic kidney (HEK) 293 cells were plated in a 96-well flat bottom plate the day before transfection. Plasmid DNA (500 ng) was added to a tube or a 96-well U-bottom plate. Separately, TransIT-293 reagent (Mirus; 1.4 L) was added to 50 μL Optimum I media (Life Technologies) and allowed to sit for 5 minutes at room temperature (RT). Then, 50 μL of this diluted transfection reagent was added to the DNA, mixed, and incubated at RT for 20 min. Finally, 7 μL of this solution was added to a well of cells in the 96-well plate. Four hours after transfection, medium containing transfection solution was replaced by medium with either TPP or fursultiamine as aptamer ligands.
Firefly luciferase assay of cultured cells: Twenty-four hours after media change, plates were removed from the incubator, and equilibrated to RT for several minutes on a lab bench, then aspirated. Glo-lysis buffer (Promega, 100 μL, RT) was added, and the plates allowed to remain at RT for at least 5 minutes. Then, the well contents were mixed by 50 μL trituration, and 20 μL of each sample was mixed with 20 μL of bright-glo reagent (Promega) that had been diluted to 10% in glo-lysis buffer. 96 wells were spaced on an opaque white 384-well plate. Following a 5 min incubation at RT, luminescence was measured using a Tecan machine with 500 ms read time. The luciferase activity was expressed as mean arbitrary light units (ALU)±S.D., and fold induction was calculated as the quotient of the luciferase activity obtained from cells with TPP or analog compound treatment divided by the luciferase activity obtained from cells without TPP or analog compound treatment.

[1] = tested on: hGH-12G6 (N5-12G6 riboswitch in hGH gene); assay: ELISA for human growth hormone, hGH-12G6 construct in HEK 293 cells; assay type: cell-based; details: HEK 293, hGH-12G6, 3.1 μM Comp. 004
From the text: (§1) Riboswitch constructs: The alternative splicing riboswitch cassette containing aptamers N5-12G6 or N4-1C11 was inserted between nucleotide position 307 and 308 in the mouse erythropoietin cDNA sequence, generating constructs mEpo-12G6 and mEpo-1C11. Expression of the erythropoietin gene was driven by CASI promoter. The intron-exon-intron cassette without aptamer sequence was inserted at the same position in the cDNA of mEpo gene to create construct mEpo-Con1, serving as a control for constitutive target gene expression. N5-12G6 riboswitch cassette was inserted between nucleotide position 424 and 425 in the cDNA of human growth hormone (hGH) gene driven under CMV promoter.
ELISA for human growth hormone (hGH): HEK 293 cells were transfected as described in Example 1 with TransIT-293 transfection reagent (Mirus Bio). Four hours after transfection, the transfected cells were treated with or without Comp. 004 at the indicated doses. The supernatants from the transfected cells were collected 24 hours after Comp. 004 treatment and were subjected to ELISA for the detection of hGH in the supernatant following the manufacturer's instruction (R&D Systems).

[2] = tested on: mEpo-1C11 (N4-1C11 riboswitch in mEpo gene); assay: ELISA for mouse erythropoietin, construct mEpo-1C11 in AML12 cells; assay type: cell-based; details: mEpo-1C11, 1.85 μM Comp. 004
From the text: as §1
(§2) Enzyme-linked immunosorbent assay (ELISA) for mouse erythropoietin (mEpo): AML-12 cells or C2C12 cells were transfected as described in Example 1 with TransIT-X2 transfection reagent (Mirus Bio). Four hours after transfection, the transfected cells were treated with or without Comp. 004 at the indicated doses. The supernatants from the transfected cells were collected 24 hours after compound treatment and were subjected to ELISA for the detection of mEpo in the supernatant following the manufacturer's instruction (R&D).

[3] = tested on: E. coli thiM TPP aptamer in TPPm riboswitch; assay: Firefly luciferase assay, TPPm riboswitch construct in HEK 293 cells; assay type: cell-based, human; details: HEK 293, 50 μM Comp. 004
Protocol: (§3) First, the E. coli thiM TPP aptamer, the aptamer that was used in Weeks' work in generating the Comp. 004, was tested in TPPm riboswitch construct (SEQ ID No. 87 as described in 62/994,135) for its response to Comp. 004 in inducing gene expression. To evaluate whether this novel TPP aptamer binder could bind a different TPP aptamer, TPP aptamer from Alishewanella tabrizica thiC gene (Microbiol Res. 2017 January; 195:71-80) was tested in TPPz riboswitch construct (SEQ ID No. 86 as described in 62/994,135).

N4-1C11 riboswitch = assay: Firefly luciferase assay, N4-1C11 riboswitch in HEK 293 cells; assay type: cell-based, human; details: N4-1C11, 0.1 μM Comp. 004
Protocol: as §4
(§5) Firefly luciferase assay of cultured cells: Twenty-four hours after media change, plates were removed from the incubator, and equilibrated to RT for several minutes on a lab bench, then aspirated. […] Following a 5 min incubation at RT, luminescence was measured using a Tecan machine with 500 ms read time. The luciferase activity was expressed as mean arbitrary light units (ALU)±S.D., and fold induction was calculated as the quotient of the luciferase activity obtained from cells with TPP or analog compound treatment divided by the luciferase activity obtained from cells without TPP or analog compound treatment.

[4] = tested on: mEpo-12G6 (N5-12G6 riboswitch in mEpo gene); assay: ELISA for mouse erythropoietin, construct mEpo-12G6 in AML12 cells; assay type: cell-based; details: mEpo-12G6, 1.85 μM Comp. 004
From the text: as §1, §2

[5] = tested on: hematocrit of anemic mice; assay: Hematocrit in mouse model of chronic kidney disease (CKD)-associated anemia with AAV8.mEpo.12G6; assay type: in vivo; details: for hematocrit: 300 mg/kg for 15 days and 10 doses
Protocol: Chronic kidney disease-associated anima: male C57Bl/6 mice were injected intramuscularly with 2.5×10^10 vg or 1.0×10^10 vg of AAV8.mEpo.12G6 per mouse. One week post AAV injection, mice were treated daily with 50 mg/kg adenine (Sigma) via oral gavage for total 28 treatment in 5 weeks. Hematocrit was measured after Adenine treatment and before small molecule inducer treatment and monitored every 7 to 10 days post daily small molecule inducer oral dosing.

[6] = tested on: AAV9.hPTH-12G6 hPTH expression; assay: hPTH production and serum calcium in mice injected intramuscularly with AAV9.hPTH-12G6, oral Comp. 004; assay type: in vivo; details: oral 30, 100 or 300 mg/kg for 3 days
Protocol: AAV2.9 viral particle production: The AAV9 particles used for the transduction of mice comprised a viral genome derived from AAV2 (ITR) and a capsid derived from AAV9. The hPTH-12G6 was cloned into AAV plasmid backbone with CASI promoter, and the AAV plasmid was packaged into AAV9 capsid, generating vector AAV9.hPTH-12G6 (Signagen)
Animal study: C57BL/6 mice were injected intramuscularly with AAV9.hPTH-12G6 at 2.5×10^11 viral genome (VG) per mouse of the AAV9 viral particle into both quadriceps. Compound 004 was formulated in 0.5% methylcellulose (MC): 0.25% Tween® 80 in deionized (DI) water for oral administration. 30 days after AAV vector delivery, mice were treated orally via oral gavage with 0 mg/kg, 30 mg/kg, 100 mg/kg or 300 mg/kg Comp. 004 for 3 days.

[7] = tested on: Alishewanella tabrizica thiC aptamer in TPPz riboswitch; assay: Firefly luciferase assay, TPPz riboswitch construct in HEK 293 cells; assay type: cell-based, human; details: HEK 293, 50 μM Comp. 004
Protocol: as §3

[8] = tested on: AAV8.mEpo.12G6 mEpo expression; assay: Serum mouse Epo ELISA in mice injected in the muscle with AAV8.mEpo.12G6, oral Comp. 004; assay type: in vivo; details: 1×10^11 GC AAV8 in the muscle, 30 mg/kg oral
Protocol: For regulated mouse erythropoietin (mEpo) study, each female Balb/c mouse was injected in the quadricep muscle with 1.0×10^11, 5×10^10, 1×10^10, or 5×10^9 GC of AAV8 vectors containing riboswitch N5-12G6 regulated mEpo gene (AAV8.mEpo.12G6). 5 weeks post AAV injection, mice were treated with Comp. 004 formulated in 0.5% methylcellulose (MC): 0.25% Tween® 80 in deionized (DI) water via oral gavage. 16 hours post oral dosing, mice were subjected to submandibular blood collection. 10 fold diluted serum was used to measure mouse serum Epo using ELISA (Invitrogen).

N5-12E5 riboswitch = assay: Firefly luciferase assay, N5-12E5 riboswitch in HEK 293 cells; assay type: cell-based, human; details: N5-12E5, 0.1 μM Comp. 004
Protocol: as §4, §5

[9] = tested on: hPTH-12G6 (N5-12G6 riboswitch in hPTH gene); assay: ELISA for human PTH, hPTH-12G6 construct in HEK 293 cells; assay type: cell-based; details: HEK 293, hPTH-12G6
From the text: Riboswitch constructs: Alternative splicing riboswitch cassette containing aptamers N5-12G6 was inserted between nucleotide position 181 and 182 in human parathyroid hormone (hPTH) cDNA sequence, generating constructs hPTH-12G6. Expression of the erythropoietin gene was driven by CASI promoter.
Enzyme-linked immunosorbent assay (ELISA) for human PTH: HEK 293 cells were transfected as described in Example 1 with TransIT-293 transfection reagent (Mirus Bio). Four hours after transfection, the transfected cells were treated with or without Compound 004 at the indicated doses. The supernatants from the transfected cells were collected 48 hours after compound treatment and were subjected to ELISA for the detection of human PTH in the supernatant following the manufacturer's instruction (Abcam).

[10] = tested on: riboswitch regulatable mEpo constructs; assay: ELISA for mouse erythropoietin, riboswitch regulatable mEpo constructs in C2C12 cells; assay type: cell-based
From the text: as §1, §2

SMILES: CN(C)CCNCc1ccc2nccnc2c1 [compound 011]
activation of 12C6-1 and derivative riboswitches in regulating Luciferase expression (FIG. 4d) (12C6-1 riboswitch): bind 12C6-1 and activate derivative riboswitches

SMILES: O=C(CNc1cnccc1N1CCNCC1)Nc1ccc2nccnc2c1 [compound 005]
activation of 12C6-1 and derivative riboswitches in regulating Luciferase expression (FIG. 4d) (12C6-1 riboswitch): bind 12C6-1 and activate derivative riboswitches

SMILES: c1cc(N2CCNCC2)c(NCc2ccc3nccnc3c2)cn1 [Comp. 004]
fold increase in luciferase expression (N5-12G6 riboswitch; N5-12G6, 0.1 μM Comp. 004): 36 fold | fold of the hGH expression from cells without compound treatment [1]: approximately 243 fold | hGH expressed [1]: 202 ng/mL | fold induction of mEpo expression [2]: ~71 fold | increase in luciferase expression [3]: 4.1 | fold increase in luciferase expression (12C6-1 riboswitch; Luci-12C6-1, HEK 293, 50 uM Comp. 004): 360 fold | fold increase in luciferase expression (N4-1C11 riboswitch): 16 fold | fold induction of mEpo expression [4]: about 148 fold | hematocrit ([5]; AAV 1×10^10 vg per mouse): restored to normal level | hematocrit ([5]; AAV 2.5×10^10 vg per mouse): exceeded the normal hematocrit level | hematocrit of anemic mice ([5]; after 20 oral doses, biggest increase in the 100 mg/kg dose group): increased | production of hPTH in mice [6]: induced dose-dependent production of hPTH | serum calcium concentration [6]: increase in the serum calcium concentration | fold increase in luciferase expression [7]: 26 fold | serum vector-expressed mEpo [8]: elevated | fold increase in luciferase expression (N5-12E5 riboswitch): 8 fold | hPTH expression [9]: dose dependent manner | mEpo expression [10]: induced upon treatment of Comp. 004 in a dose dependent manner

SMILES: C=CN(CCN(C)C)Cc1ccc2nccnc2c1 [compound 009]
activation of 12C6-1 and derivative riboswitches in regulating Luciferase expression (FIG. 4d) (12C6-1 riboswitch): bind 12C6-1 and activate derivative riboswitches

SMILES: Cl.c1cc(N2CCNCC2)c(CNCc2ccc3nccnc3c2)cn1 [compound 008]
activation of 12C6-1 and derivative riboswitches in regulating Luciferase expression (FIG. 4d) (12C6-1 riboswitch): bind 12C6-1 and activate derivative riboswitches

SMILES: CC(=C(CCO)SSCC1CCCO1)N(C=O)Cc1cnc(C)nc1N (stereo in doubt) [fursultiamine, reference compound]
luciferase expression response (12C6-1 riboswitch): induced luciferase gene expression in a dose-dependent manner

SMILES: Cc1ncc(C[n+]2csc(CCO[P@](=O)(O)OP(=O)(O)O)c2C)c(N)n1 [TPP, Thiamine Pyrophosphate, reference compound]
luciferase expression response (12C6-1 riboswitch): dose-dependent response

SMILES: O=C(O)CCC(=O)Nc1ccc2nccnc2c1 [compound 003]
activation of 12C6-1 and derivative riboswitches in regulating Luciferase expression (FIG. 4d) (12C6-1 riboswitch): bind 12C6-1 and activate derivative riboswitches

SMILES: Brc1cncc(NCc2ccc3nccnc3c2)c1N1CCNCC1 [compound 074, 5-bromo-4-(piperazin-1-yl)-N-(quinoxalin-6-ylmethyl)pyridin-3-amine]
fold induction at 2 µM (N5-12G6 riboswitch): 48.6

SMILES: C[C@@H]1CN(c2c(Cl)cncc2NCc2ccc3nccnc3c2)CCN1 [compound 056, (R)-5-chloro-4-(3-methylpiperazin-1-yl)-N-(quinoxalin-6-ylmethyl)pyridin-3-amine]
fold induction at 2 µM (N5-12G6 riboswitch): 12.9

SMILES: Cc1cc2nccnc2cc1CNc1cnccc1O[C@@H]1CCNC1 [compound 123, (R)—N-((7-methylquinoxalin-6-yl)methyl)-4-(pyrrolidin-3-yloxy)pyridin-3-amine]
fold induction at 2 µM (N5-12G6 riboswitch): 83.9

SMILES: c1cc(OC2CCNCC2)c(NCc2ccc3nccnc3c2)cn1 [compound 045, 4-(piperidin-4-yloxy)-N-(quinoxalin-6-ylmethyl)pyridin-3-amine]
fold induction at 2 µM (N5-12G6 riboswitch): 12

Fold induction 2 μM (HEK) (N5-12G6 riboswitch; 12G6 riboswitch, luciferase, HEK293, 2 μM): 43.5 fold
SMILES: Fc1cc(CNc2cncc(Cl)c2N2CCNCC2)cc2nccnc12 [compound 077, 5-chloro-N-((8-fluoroquinoxalin-6-yl)methyl)-4-(piperazin-1-yl)pyridin-3-amine]

SMILES: C[C@@H]1CNCCN1c1c(Cl)cncc1NCc1ccc2nccnc2c1 [compound 026, (R)-5-Chloro-4-(2-methylpiperazin-1-yl)-N-(quinoxalin-6-ylmethyl)pyridin-3-amine]
fold induction at 2 µM (N5-12G6 riboswitch): 27.2

SMILES: Cc1cncc(NCc2cc3nccnc3cc2F)c1N1CCNCC1 [compound 086, N-((7-fluoroquinoxalin-6-yl)methyl)-5-methyl-4-(piperazin-1-yl)pyridin-3-amine]
fold induction at 2 µM (N5-12G6 riboswitch): 17.3
